Legend:
CYP2C8 = target: T1, CYP2C8 (Homo sapiens, UniProt P10632); assay: CYP Inhibition Assay (CYP2C8, human liver microsomes, paclitaxel substrate); format: in vitro ADME; conditions: pH 7.4; pooled human liver microsomes 0.1 mg/mL, probe substrate paclitaxel
T1 construct: Pooled human microsomes were obtained from Sekisui XenoTech, KS; tissue Sekisui XenoTech, KS; host or cells: pooled human liver microsomes
T1 sequence (P10632 1-490): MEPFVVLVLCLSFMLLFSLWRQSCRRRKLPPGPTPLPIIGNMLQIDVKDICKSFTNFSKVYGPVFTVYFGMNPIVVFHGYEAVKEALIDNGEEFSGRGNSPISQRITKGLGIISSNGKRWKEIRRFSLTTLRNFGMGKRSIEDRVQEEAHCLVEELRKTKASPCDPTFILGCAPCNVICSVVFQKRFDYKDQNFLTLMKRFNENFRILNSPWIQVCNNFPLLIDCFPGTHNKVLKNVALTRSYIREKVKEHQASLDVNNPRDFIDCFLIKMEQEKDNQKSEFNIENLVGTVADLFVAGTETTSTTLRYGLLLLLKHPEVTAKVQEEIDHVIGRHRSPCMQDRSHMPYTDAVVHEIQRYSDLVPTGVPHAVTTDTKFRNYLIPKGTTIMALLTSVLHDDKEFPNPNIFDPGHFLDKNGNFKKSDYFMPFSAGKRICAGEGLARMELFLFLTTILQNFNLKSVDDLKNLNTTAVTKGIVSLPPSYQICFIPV
In short: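 Pooled human liver microsomes (0.1 mg/mL) in 50 mM potassium phosphate pH 7.4 with compound, started with 1 mM NADPH, 5 min at 37° C, duplicate.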

GR = target: T2, GR (Homo sapiens, UniProt P04150); assay: In Vitro GR Luciferase Reporter Assay (antagonist mode, CHO-K1-GR-MMTV-Luc reporter cells); format: cell-based; conditions: antagonist mode, 10 nM Dexamethasone
T2 construct: expressed in transfected cells; host or cells: CHO-K1
T2 sequence (P04150 1-777): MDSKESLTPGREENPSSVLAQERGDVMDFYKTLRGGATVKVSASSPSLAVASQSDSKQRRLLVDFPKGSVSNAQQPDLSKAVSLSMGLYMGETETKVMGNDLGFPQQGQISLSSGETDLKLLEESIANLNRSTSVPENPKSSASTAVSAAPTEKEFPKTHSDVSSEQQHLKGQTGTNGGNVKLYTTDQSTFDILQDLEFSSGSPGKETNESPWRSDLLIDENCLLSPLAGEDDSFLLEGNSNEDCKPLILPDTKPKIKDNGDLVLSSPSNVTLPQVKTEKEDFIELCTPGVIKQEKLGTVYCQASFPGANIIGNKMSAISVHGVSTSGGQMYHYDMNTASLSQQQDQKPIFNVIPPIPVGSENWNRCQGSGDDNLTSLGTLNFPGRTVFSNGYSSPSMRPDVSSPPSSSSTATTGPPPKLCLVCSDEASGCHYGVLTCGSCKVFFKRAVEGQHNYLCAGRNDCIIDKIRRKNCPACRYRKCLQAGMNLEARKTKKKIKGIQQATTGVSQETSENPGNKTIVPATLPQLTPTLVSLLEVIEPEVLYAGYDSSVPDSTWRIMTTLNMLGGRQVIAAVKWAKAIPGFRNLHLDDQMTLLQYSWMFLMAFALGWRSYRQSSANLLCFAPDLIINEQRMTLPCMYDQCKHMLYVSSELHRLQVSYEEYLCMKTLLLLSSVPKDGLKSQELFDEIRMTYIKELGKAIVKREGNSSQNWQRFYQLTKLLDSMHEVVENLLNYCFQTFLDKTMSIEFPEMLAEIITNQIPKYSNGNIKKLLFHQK
In short: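 CHO-K1-GR-MMTV-Luc cells in phenol red-free DMEM with 10% CSS, stimulated with 10 nM dexamethasone (final) and treated with 8-point 1:5 compound dilutions for about 18-24 h at 37° C. Luciferase measured by OneGlo luminescence; IC50 derived for inhibition of GR activity.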

## CO[C@]1(C)C[C@H](N([C@H]2CCC3=Cc4c(cnn4-c4ccc(F)cc4)C[C@]3(C(=O)c3cc(F)ccn3)C2)S(=O)(=O)c2ccn(C)n2)C1 [Example 371, N-((4aS,6S)-1-(4-fluorophenyl)-4a-(4-fluoropicolinoyl)-4,4a,5,6,7,8-hexahydro-1H-benzo[f]indazol-6-yl)-N-((1s,3R)-3-methoxy-3-methylcyclobutyl)-1-methyl-1H-pyrazole-3-sulfonamide]
CYP2C8
  inhibition at 5 min: 25 to 50%
GR
  IC50: ≤ 100 nM

## Cn1cc(S(=O)(=O)N(CC(F)F)[C@H]2CCC3=Cc4c(cnn4-c4ccc(F)cc4)C[C@]3(C(=O)c3cc(F)ccn3)C2)nn1 [Example 373, N-(2,2-difluoroethyl)-N-((4aS,6S)-1-(4-fluorophenyl)-4a-(4-fluoropicolinoyl)-4,4a,5,6,7,8-hexahydro-1H-benzo[f]indazol-6-yl)-1-methyl-1H-1,2,3-triazole-4-sulfonamide]
CYP2C8
  inhibition at 5 min: 50 to 75%
GR
  IC50: ≤ 100 nM

## Cn1cnc(S(=O)(=O)[C@H]2CCC3=Cc4c(cnn4-c4ccc(F)cc4)C[C@]3(C(=O)c3ccc(C(F)(F)F)cn3)C2)n1 [Example 374, ((4aS,6S)-1-(4-fluorophenyl)-6-((1-methyl-1H-1,2,4-triazol-3-yl)sulfonyl)-1,4,5,6,7,8-hexahydro-4aH-benzo[f]indazol-4a-yl)(5-(trifluoromethyl)pyridin-2-yl)methanone]
CYP2C8
  inhibition at 5 min: ≤ 25%
GR
  IC50: ≤ 100 nM

## Cn1cnc(S(=O)(=O)CC2CCC3=Cc4c(cnn4-c4ccc(F)cc4)C[C@]3(C(=O)c3cc(C(F)(F)F)ccn3)C2)n1 (stereo partly drawn) [Example 377, ((4aR)-1-(4-fluorophenyl)-6-(((1-methyl-1H-1,2,4-triazol-3-yl)sulfonyl)methyl)-1,4,5,6,7,8-hexahydro-4aH-benzo[f]indazol-4a-yl)(4-(trifluoromethyl)pyridin-2-yl)methanone]
CYP2C8
  inhibition at 5 min: 25 to 50%
GR
  IC50: ≤ 100 nM
